Data on 15 compounds can be found in patent publication US6914064B2, “1,4-Disubstituted piperazine derivatives useful as uro-selective α1-adrenoceptor blockers” (Ranbaxy Laboratories Limited, priority 2000, dated 2005).

Structures are written as SMILES. Where a name gives a salt, the structure may show the parent alone. Read-outs that look alike come from different tables or passages of the source. Where only a bound is given, the exact number is not on record here.

The target in one data set is T1, α1A adrenoceptor (Rattus norvegicus, UniProt P43140).
T1 construct: from tissue; host or cells: rat submaxillary gland membranes
T1 sequence (P43140 1-466): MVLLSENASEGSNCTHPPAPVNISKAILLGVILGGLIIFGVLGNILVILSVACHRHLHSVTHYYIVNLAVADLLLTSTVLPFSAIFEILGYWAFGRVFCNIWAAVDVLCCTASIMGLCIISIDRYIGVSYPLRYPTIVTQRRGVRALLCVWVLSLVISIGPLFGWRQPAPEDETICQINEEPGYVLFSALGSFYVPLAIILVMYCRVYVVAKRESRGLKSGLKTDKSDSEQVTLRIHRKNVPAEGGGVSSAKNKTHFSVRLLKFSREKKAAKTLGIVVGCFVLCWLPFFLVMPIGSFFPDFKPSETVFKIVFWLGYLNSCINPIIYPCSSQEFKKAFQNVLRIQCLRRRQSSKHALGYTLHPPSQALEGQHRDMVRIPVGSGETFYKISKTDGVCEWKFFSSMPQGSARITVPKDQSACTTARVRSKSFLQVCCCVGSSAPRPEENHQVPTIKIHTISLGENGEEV
Nature of the data set: Receptor binding assay, displacement of [3H]prazosin, rat submaxillary membranes. As to conditions: for Selectivity α1B/α1A: ratio of Ki α1B (rat liver) / α1A (rat submaxillary). The procedure: Receptor binding assays were performed using native α-adrenoceptors.
(§1) Submaxillary glands were isolated immediately after sacrifice. The liver was perfused with buffer (Tris HCl 50 mM, NaCl 100 mM, 10 mM EDTA pH 7.4). The tissues were homogenised in 10 volumes of buffer (Tris HCl 50 mM, NaCl 100 mM, EDTA 10 mM, pH 7.4). The homogenate was filtered through two layers of wet gauze and filtrate was centrifuged at 500 g for 10 min. The supernatant was subsequently centrifuged at 40,000 g for 45 min. The pellet thus obtained was resuspended in the same volume of assay buffer (Tris HCl 50 mM, EDTA 5 mM, pH 7.4) and were stored at −70° C. until the time of assay.
(§2) The membrane homogenates (150-250 μg protein) were incubated in 250 μl of assay buffer (Tris HCl 50 mM, EDTA 5 mM, pH 7.4) at 24-25° C. for 1 h. Non-specific binding was determined in the presence of 300 nM prazosin. The incubation was terminated by vacuum filtration over GF/B fibre filters. The filters were then washed with ice cold 50 mM Tris HCl buffer (pH 7.4). The filtermats were dried and bound radioactivity retained on filters was counted.The IC50 & Kd were estimated by using the non-linear curve fitting program using G Pad Prism software.
For orientation: Loss of bound radioactivity is the signal in a displacement assay; it reports binding, not function.

The target in another data set is T2, α1B adrenoceptor (Rattus norvegicus, UniProt P15823).
T2 construct: from tissue; host or cells: rat liver membranes
T2 sequence (P15823 1-515): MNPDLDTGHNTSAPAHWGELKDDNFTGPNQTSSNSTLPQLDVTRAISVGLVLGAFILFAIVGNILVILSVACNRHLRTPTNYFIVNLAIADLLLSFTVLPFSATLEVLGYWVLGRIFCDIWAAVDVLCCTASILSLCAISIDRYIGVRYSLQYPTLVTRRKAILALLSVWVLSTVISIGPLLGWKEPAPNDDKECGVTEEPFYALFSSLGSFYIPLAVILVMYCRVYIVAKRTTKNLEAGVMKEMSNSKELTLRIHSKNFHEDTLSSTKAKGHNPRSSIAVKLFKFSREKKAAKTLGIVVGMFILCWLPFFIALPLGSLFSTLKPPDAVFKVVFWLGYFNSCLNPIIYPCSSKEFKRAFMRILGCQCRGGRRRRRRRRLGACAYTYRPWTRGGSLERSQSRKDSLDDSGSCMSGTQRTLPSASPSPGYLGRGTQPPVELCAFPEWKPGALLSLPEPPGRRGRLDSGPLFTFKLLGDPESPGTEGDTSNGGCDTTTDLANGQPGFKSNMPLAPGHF
Nature of the data set: Receptor binding assay, displacement of [3H]prazosin, rat liver membranes. The procedure:
Receptor binding assays were performed using native α-adrenoceptors. The affinity of different compounds for α1A and α1B adrenoceptor subtypes was evaluated by studying their ability to displace specific [^3H]prazosin binding from the membranes of rat submaxillary and liver respectively (Michel et al, Br J Pharmacol, 98, 883-889 (1989)). The binding assays were performed according to U'Prichard et al. (Eur J Pharmacol, 50:87-89 (1978)) with minor modifications.
as §1
as §2, with “software. The value of inhibition constant Ki was calculated from competitive binding studies by using Cheng & Prusoff equation (Cheng & Prusoff, Biochem Pharmacol, 1973,22: 3099-3108), Ki=IC50/(1+L/Kd) where L is the concentration of [^3H]prazosin used in the particular experiment (Table I).” for “software.”

[1] abbreviates: [3H]prazosin displacement, rat submaxillary membranes, read-out: α1A (Rat submaxillary) Ki.
Where [2] appears, read: [3H]prazosin displacement, rat liver membranes, read-out: α1B (Rat liver) Ki.

By Ki is commonly meant the dissociation constant of the complex between target and ligand, obtained from inhibition or displacement. What is called melting point is the temperature, or range, at which the solid turns liquid. Take `Cc1cccc(C)c1N1CCN(CCCN2C(=O)C3CC=CCC3C2=O)CC1.Cl` (stereo not shown) [Compound 22, 2-[3-{4-(2,6-Dimethylphenyl)piperazin-1-yl}propyl]-3a,4,7,7a-tetrahydro-1H-isoindole-1,3(2H)-dione hydrochloride]: the melting point is 223 to 224 °C. Moreover, at α1A adrenoceptor (setting [1]), the Ki was determined as 0.208 µM. On α1A adrenoceptor, the “Selectivity α1B/α1A” value was determined as 2.4. Further, the Ki on α1B adrenoceptor (setting [2]) was more than 0.5 µM.
Compound `Cc1ccc(Cl)cc1N1CCN(CCCN2C(=O)C3CC=CCC3C2=O)CC1.Cl` (stereo not shown) [Compound 12, 2-[3-{4-(2-Methyl-5-chlorophenyl)piperazin-1-yl}propyl]-3a,4,7,7a-tetrahydro-1H-isoindole-1,3(2H)-dione hydrochloride] yielded a melting point of 231 to 232 °C. Moreover, the inhibitory constant (Ki) on α1A adrenoceptor (setting [1]) was found to be 0.00866 µM. Further, the “Selectivity α1B/α1A” value on α1A adrenoceptor stood at 5.9. Moreover, the inhibition constant (Ki) at α1B adrenoceptor (setting [2]) was determined as 0.0513 µM.
On the same counts, the results for `COc1cc(F)ccc1N1CCN(CCCN2C(=O)C3CC=CCC3C2=O)CC1.Cl` (stereo not shown) [Compound 18, 2-[3-{4-(4-Fluoro-2-methoxyphenyl)piperazin-1-yl}propyl]-3a,4,7,7a-tetrahydro-1H-isoindole-1,3(2H)-dione hydrochloride] are 232 to 233 °C, 0.01 µM, 27 and 0.271 µM.
In turn, `Cc1ccccc1N1CCN(CCCN2C(=O)[C@H]3CC=CC[C@H]3C2=O)CC1` (as salt: hydrochloride) [Compound 03, 2-[3-{4-(2-Methylphenyl)piperazin-1-yl}propyl]-3a,4,7,7a-tetrahydro-1H-isoindole-1,3(2H)-dione hydrochlolide] displayed a melting point of 186 to 187 °C.
With `Cl.O=C1C2CC=CCC2C(=O)N1CCCN1CCN(c2cccc(C(F)(F)F)c2)CC1` (stereo not shown) [Compound 05, 2-[3-{4-(3-Trifluoromethylphenyl)piperazin-1-yl}propyl]-3a,4,7,7a-tetrahydro-1H-isoindole-1,3(2H)-dione hydrochloride], the melting point fell in the range of 215 to 217 °C. Also, at α1A adrenoceptor, affinity was put at a Ki of 0.259 µM and the “Selectivity α1B/α1A” value is on record as 2. The compound also returned an inhibition constant Ki on α1B adrenoceptor of more than 0.5 µM.
On to `Cl.O=C1C2CC=CCC2C(=O)N1CCCN1CCN(CC=Cc2ccccc2)CC1` (stereo not shown) [Compound 15, 2-[3-{4-(Cinnamyl)piperazin-1-yl}propyl]-3a,4,7,7a-tetrahydro-1H-isoindole-1,3(2H)-dione hydrochloride], for which the melting point lay within 263 to 265 °C. For the same compound, the inhibition constant (Ki) at α1A adrenoceptor (setting [1]) is more than 0.5 µM. At α1A adrenoceptor, the “Selectivity α1B/α1A” value was found to be 1. In addition, the Ki on α1B adrenoceptor (setting [2]) was more than 0.5 µM.
With `Cl.O=C1C2CC=CCC2C(=O)N1CCCN1CCN(c2ccccc2F)CC1` (stereo not shown) [Compound 06, 2-[3-{4-(2-Fluorophenyl)piperazin-1-yl}propyl]-3a,4,7,7a-tetrahydro-1H-isoindole-1,3(2H)-dione hydrochloride], the melting point is 203 to 204 °C. On α1A adrenoceptor (setting [1]), the Ki was 0.036 µM. Moreover, the “Selectivity α1B/α1A” value at α1A adrenoceptor was 13. Besides, on α1B adrenoceptor (setting [2]), the inhibitory constant (Ki) is 0.469 µM.
Turning to `O=C1[C@H]2CC=CC[C@H]2C(=O)N1CCCN1CCN(C(c2ccc(F)cc2)c2ccc(F)cc2)CC1` [Compound 19, 2-[3-{4-(Bis-4-fluorophenyl)methylpiperazin-1-yl}propyl]-3a,4,7,7a-tetrahydro-1H-isoindole-1,3(2H)-dione hydrochloride], the figures for the Ki on α1A adrenoceptor (setting [1]) and on α1B adrenoceptor (setting [2]) were 0.00526 µM and 0.081 µM, respectively. At α1A adrenoceptor, the “Selectivity α1B/α1A” value was 15.
With `COc1ccc(N2CCN(CCCN3C(=O)C4CC=CCC4C3=O)CC2)c(OC)c1.Cl` (stereo not shown) [Compound 21, 2-[3-{4-(2,4-Dimethoxyphenyl)piperazin-1-yl}propyl]-3a,4,7,7a-tetrahydro-1H-isoindole-1,3(2H)-dione hydrochloride], the melting point was in the range of 226 to 227 °C. The Ki on α1A adrenoceptor (setting [1]) is more than 0.5 µM. The “Selectivity α1B/α1A” value on α1A adrenoceptor is recorded as 1. Besides, the Ki at α1B adrenoceptor (setting [2]) is more than 0.5 µM.
Consider `COc1ccc(OC)c(N2CCN(CCCN3C(=O)C4CC=CCC4C3=O)CC2)c1.Cl` (stereo not shown) [Compound 26, 2-[3-{4-(2,5-Dimethoxyphenyl)piperazin-1-yl}propyl]-3a,4,7,7a-tetrahydro-1H-isoindole-1,3(2H)-dione hydrochloride], for which the melting point is 193 to 195 °C. Also, the Ki on α1A adrenoceptor (setting [1]) was 0.038 µM. Besides, at α1A adrenoceptor, the “Selectivity α1B/α1A” value was found to be 13. At α1B adrenoceptor (setting [2]), the Ki is more than 0.5 µM.
For `Cl.O=C1C2CC=CCC2C(=O)N1CCCN1CCN(c2ccc(F)cc2F)CC1` (stereo not shown) [Compound 10, 2-[3-{4-(2,4-Difluorophenyl)piperazin-1-yl}propyl]-3a,4,7,7a-tetrahydro-1H-isoindole-1,3(2H)-dione hydrochloride] the same measures were 218.2 to 219 °C, 0.062 µM, 2.7 and 0.165 µM.
In turn, `O=C1[C@H]2CC=CC[C@H]2C(=O)N1CCCN1CCN(C(c2ccc(F)cc2)c2ccc(F)cc2)CC1` (as salt: hydrochloride) [Compound 19, 2-[3-{4-(Bis-4-fluorophenyl)methylpiperazin-1-yl}propyl]-3a,4,7,7a-tetrahydro-1H-isoindole-1,3(2H)-dione hydrochloride] showed a melting point of 235 to 236 °C.
As for `COc1cccc(O)c1N1CCN(CCCN2C(=O)C3CC=CCC3C2=O)CC1.Cl` (stereo not shown) [Compound 28, 2-[3-{4-(2-Methoxy-6-hydroxyphenyl)piperazin-1-yl}propyl]-3a,4,7,7a-tetrahydro-1H-isoindole-1,3(2H)-dione hydrochloride], the melting point lay within 267 to 268 °C. In addition, the inhibition constant Ki at α1A adrenoceptor (setting [1]) was more than 0.5 µM. Also, the “Selectivity α1B/α1A” value on α1A adrenoceptor is on record as 1. For the same compound, the inhibition constant Ki on α1B adrenoceptor (setting [2]) was more than 0.5 µM.
As to `Cl.O=C1C2CC=CCC2C(=O)N1CCCN1CCN(Cc2ccccc2)CC1` (stereo not shown) [Compound 14, 2-[3-{4-(Benzyl)piperazin-1-yl}propyl]-3a,4,7,7a-tetrahydro-1H-isoindole-1,3(2H)-dione hydrochloride], the melting point is 275 to 278 °C. On α1A adrenoceptor (setting [1]), the inhibition constant Ki was more than 0.5 µM. In addition, the “Selectivity α1B/α1A” value on α1A adrenoceptor is recorded as 1. Besides, the Ki on α1B adrenoceptor (setting [2]) is more than 0.5 µM.
With `Cc1ccccc1N1CCN(CCCN2C(=O)[C@H]3CC=CC[C@H]3C2=O)CC1` [Compound 03, 2-[3-{4-(2-Methylphenyl)piperazin-1-yl}propyl]-3a,4,7,7a-tetrahydro-1H-isoindole-1,3(2H)-dione hydrochlolide], the inhibition constant Ki on α1A adrenoceptor (setting [1]) turned out to be 0.0325 µM; at α1B adrenoceptor (setting [2]), 0.168 µM. On α1A adrenoceptor, the “Selectivity α1B/α1A” value is on record as 5.
